Test results as given in patent publication US5300629A, “Bactericidal and/or bacteriostatic peptides isolated from hemolymph of honeybees” (Plant Genetic Systems, N.V., priority 1987, dated 1994).
≈ marks a conversion by molar mass, not a printed value. Where a SMILES comes first, the peptide text is derived from it.

Experiments:
Assay type in all cases: cell-based
[1] = test system: Pseudomonas solanacearum ATCC 11696; conditions: 200 μl rich medium, 10^4 log-phase bacteria
E. coli NCTC 9001 [2] = conditions: E. coli NCTC 9001; 4 μg/well
Procedure: Whole lymph or purified components, resuspended in PBS to a final volume equal to the starting material (heated lymph), was applied in 3 mm wells on agar plates seeded with the test organisms. Antibacterial activity was determined by measuring the growth-inhibition zones (in mm).
Test conditions: agar inhibition zone obtained with 10 namomole apidaecin, resuspended in 20 μl H2 O/well.

[3] = test system: Pseudomonas syringae pv. tabaci NCPPB 1237; assay: Inhibition zone assay; conditions: * synthetic ApidIa and heattreated immune lymph instead of Bee6 and native immune lymph
[4] = test system: Erwinia salicis NCPPB 2530; assay: Minimal inhibitory concentration in liquid culture; conditions: 200 μl rich medium, 10^4 log-phase bacteria
[5] = test system: Pseudomonas syringae pv. maculicola NCPPB 1776; assay: Inhibition zone assay; conditions: * synthetic ApidIa and heattreated immune lymph instead of Bee6 and native immune lymph
[6] = test system: Yersinia enterocolitica PGS C-1106; assay: Inhibition zone assay; conditions: * synthetic ApidIa and heattreated immune lymph instead of Bee6 and native immune lymph
[7] = test system: Citrobacter freundii ATCC 8090; assay: Minimal inhibitory concentration in liquid culture; conditions: 200 μl rich medium, 10^4 log-phase bacteria
[8] = test system: Pseudomonas syringae pv. tomato NCPPB 1106; assay: Inhibition zone assay; conditions: * synthetic ApidIa and heattreated immune lymph instead of Bee6 and native immune lymph
[9] = test system: protoplasts derived from Lactobacillus sp; assay: Protoplast regeneration, agar diffusion assay; conditions: Lactobacillus protoplasts on RM MRS medium, 4 μg/well
Procedure: Protoplasts were made using lysozyme concentrations ranging between 0 and 5 mg/ml and then incubated for 1 hour in the presence of Apid Ia (concentrations ranging between 0-10 μg/ml) . Cells were pelleted, resuspended and plated out on RM MRS. To estimate the ratio of protoplasts/normal cells, controls were plated out on MRS without the stabilizing sucrose. This prevented the regenerating of the protoplasts and enabled the deduction of the number of normal cells. To evaluate the regeneration capability of the said protoplasts in the presence of Apid Ia an agar diffusion assay was performed : the protoplasts were applied on RM MRS medium, wells were made and filled up with an apidaecin solution (4 μg/well).

[10] = test system: Xanthomonas campestris pv. campestris A 902; assay: Inhibition zone assay; parameters: key: --: "-" means that no inhibition has been found; conditions: * synthetic ApidIa and heattreated immune lymph instead of Bee6 and native immune lymph
[11] = test system: Pseudomonas solanacearum ATCC 11696; parameters: key: --: "-" means that no inhibition has been found; conditions: * synthetic ApidIa and heattreated immune lymph instead of Bee6 and native immune lymph
[12] = test system: Agrobactierium tumefaciens DSM 3129; assay: Minimal inhibitory concentration in liquid culture; conditions: 200 μl rich medium, 10^4 log-phase bacteria
[13] = test system: Bacillus megaterium QB 1551; assay: Minimal inhibitory concentration in liquid culture; conditions: 200 μl rich medium, 10^4 log-phase bacteria, + = no inhibition at maximal value
Salmonella Newport CD 94 = assay: Minimal inhibitory concentration in liquid culture; conditions: 200 μl rich medium, 10^4 log-phase bacteria
[14] = test system: Pseudomonas syringae pv. tomato NCPPB 1106; assay: Minimal inhibitory concentration in liquid culture; conditions: 200 μl rich medium, 10^4 log-phase bacteria
[15] = test system: Pseudomonas syringae pv. maculicola NCPPB 1776; assay: Minimal inhibitory concentration in liquid culture; conditions: 200 μl rich medium, 10^4 log-phase bacteria
[16] = test system: Escherichia coli NCTC 9001; assay: Minimal inhibitory concentration in liquid culture; conditions: 200 μl rich medium, 10^4 log-phase bacteria
[17] = test system: Pseudomonas syringae pv. tabaci NCPPB 1237; assay: Minimal inhibitory concentration in liquid culture; conditions: 200 μl rich medium, 10^4 log-phase bacteria
[18] = test system: Corynebacterium michiganense pv. michiganense NCPPB 1573; assay: Minimal inhibitory concentration in liquid culture; conditions: 200 μl rich medium, 10^4 log-phase bacteria, + = no inhibition at maximal value
Procedure: (§1) In addition the exact concentration was determined precisely by amino-acid analysis and an equal sample of natural Bee 6b was prepared, allowing to compare the bactericidal activity of both natural and synthetic apidaecins by means of growth inhibition assays in liquid cultures (see mat & Meth.). The minimal inhibitory concentrations (μg/ml) were determined in liquid culture : 200 μl of a rich medium (trypticase soy broth or nutrient broth) was inoculated with 10^4 log-phase bacteria. Peptide concentrations ranged between 0 and 200 μg/ml. The values express μg/ml; when no inhibition was noticed the maximal values are given (+200 μg/ml or +50 μg/ml). All peptides were chemically synthesized, except for bee 6b which is purified from bee lymph.

Shigella flexneri CP 87 = assay: Minimal inhibitory concentration in liquid culture; conditions: 200 μl rich medium, 10^4 log-phase bacteria
Procedure: as §1

[19] = test system: Corynebacterium insidiosum NCPPB 1109; assay: Minimal inhibitory concentration in liquid culture; conditions: 200 μl rich medium, 10^4 log-phase bacteria
Procedure: as §1

[20] = test system: Xanthomonas campestris pv. vesicatoria LMG 905; assay: Minimal inhibitory concentration in liquid culture; conditions: 200 μl rich medium, 10^4 log-phase bacteria, + = no inhibition at maximal value
Procedure: as §1

E. coli NCTC 9001 [21] = assay: Bactericidal activity, method not stated; conditions: lyophilized apidaecins resuspended in PBS
[22] = test system: Xanthomonas campestris pv. campestris A 902; assay: Minimal inhibitory concentration in liquid culture; conditions: 200 μl rich medium, 10^4 log-phase bacteria, + = no inhibition at maximal value
[23] = test system: Salmonella typhimurium ATCC 23565; assay: Minimal inhibitory concentration in liquid culture; conditions: 200 μl rich medium, 10^4 log-phase bacteria
[24] = test system: Erwinia carotovora var carotovora NCPPB 312; assay: Minimal inhibitory concentration in liquid culture; conditions: 200 μl rich medium, 10^4 log-phase bacteria
[25] = test system: Rhizobium meliloti ZB 314; assay: Minimal inhibitory concentration in liquid culture; conditions: 200 μl rich medium, 10^4 log-phase bacteria
[26] = test system: Erwinia carotovora var atroseptica LMG 2385; assay: Minimal inhibitory concentration in liquid culture; conditions: 200 μl rich medium, 10^4 log-phase bacteria

SMILES: CC[C@H](C)[C@H](NC(=O)[C@H](CCCNC(=N)N)NC(=O)[C@@H]1CCCN1C(=O)[C@H](Cc1c[nH]cn1)NC(=O)[C@@H]1CCCN1C(=O)[C@@H]1CCCN1C(=O)[C@H](CCCNC(=N)N)NC(=O)[C@@H]1CCCN1C(=O)[C@H](CCC(N)=O)NC(=O)[C@@H]1CCCN1C(=O)[C@@H](NC(=O)[C@H](Cc1ccc(O)cc1)NC(=O)[C@@H](NC(=O)[C@@H]1CCCN1C(=O)[C@H](CCCNC(=N)N)NC(=O)[C@H](CC(N)=O)NC(=O)[C@H](CC(N)=O)NC(=O)CN)C(C)C)[C@@H](C)CC)C(=O)O [Apid Ia] (H-GNNRPVYIPQPRPPHPRI-OH)
- minimal inhibitory concentration [1]: 25 µg/mL (≈ 11.9 µM)
- inhibition zone, positive control of the protoplast test (E. coli NCTC 9001 [2]): clear inhibition zone
- diameter of growth-inhibition zone [3]: 7 mm
- minimal inhibitory concentration [4]: 0.02 µg/mL (≈ 0.00949 µM)
- diameter of growth-inhibition zone [5]: 8 mm
- diameter of growth-inhibition zone [6]: 9 mm
- minimal inhibitory concentration [7]: 0.15 µg/mL (≈ 0.0711 µM)
- diameter of growth-inhibition zone [8]: 9 mm
- inhibition zone, regeneration of protoplasts [9]: No inhibition zone was noticed
- diameter of growth-inhibition zone [10]: --
- diameter of growth-inhibition zone [11]: --
- minimal inhibitory concentration [12]: 0.2 µg/mL (≈ 0.0949 µM)
- minimal inhibitory concentration [13]: 150 µg/mL
- minimal inhibitory concentration (Salmonella Newport CD 94): 0.2 µg/mL (≈ 0.0949 µM)
- minimal inhibitory concentration [14]: 0.2 µg/mL (≈ 0.0949 µM)
- minimal inhibitory concentration [15]: 0.5 µg/mL (≈ 0.237 µM)
- minimal inhibitory concentration [16]: 0.1 µg/mL (≈ 0.0474 µM)
- minimal inhibitory concentration [17]: 0.5 µg/mL (≈ 0.237 µM)
- minimal inhibitory concentration [18]: > 50 µg/mL
- minimal inhibitory concentration (Shigella flexneri CP 87): 0.1 µg/mL (≈ 0.0474 µM)
- minimal inhibitory concentration [19]: 50 µg/mL (≈ 23.7 µM)
- minimal inhibitory concentration [20]: > 50 µg/mL
- bactericidal activity (E. coli NCTC 9001 [21]): possessed a bactericidal activity
- minimal inhibitory concentration [22]: > 50 µg/mL
- minimal inhibitory concentration [23]: 0.1 µg/mL (≈ 0.0474 µM)
- minimal inhibitory concentration [24]: 1 µg/mL (≈ 0.474 µM)
- minimal inhibitory concentration [25]: 0.1 µg/mL (≈ 0.0474 µM)
- minimal inhibitory concentration [26]: 1 µg/mL (≈ 0.474 µM)
